Measurements: patent US6967254B2, “Substituted heterocyclic compounds and methods of use” (Amgen Inc., priority 2002, dated 2005)

system: LPS induced TNF release, THP1 cells; assay: Lipopolysaccharide-Activated THP1 Cell TNF Production Assay (LPS induced TNF release); type: cell-based; settings: Homo sapiens, THP-1, bacterial LPS, 3 h at 37° C., secreted TNF-α read by ECL
Procedure: Lipopolysaccharide-Activated THP1 Cell TNF Production Assay
THP1 cells are resuspended in fresh THP1 media (RPMI 1640, 10% heat-inactivated FBS, 1×PGS, 1×NEAA, plus 30 μM βME) at a concentration of 1E6/mL. One hundred microliters of cells per well are plated in a polystyrene 96-well tissue culture. One microgram per mL of bacterial LPS is prepared in THP1 media and is transferred to the wells. Test compounds are dissolved in 100% DMSO and are serially diluted 3 fold in a polypropylene 96-well microtiter plate (drug plate). HI control and LO control wells contain only DMSO. One microliter of test compound from the drug plate followed by 10 μL of LPS are transferred to the cell plate. The treated cells are induced to synthesize and secrete TNF-α at 37° C. for 3 h. Forty microliters of conditioned media are transferred to a 96-well polypropylene plate containing 110 μL of ECL buffer (50 mM Tris-HCl pH 8.0, 100 mM NaCl, 0.05% Tween 20, 0.05% NaN3 and 1% FBS) supplemented with 0.44 nM MAB610 monoclonal Ab (R&D Systems), 0.34 nM ruthenylated AF210NA polyclonal Ab (R&D Systems) and 44 μg/mL sheep anti-mouse M280 Dynabeads (Dynal). After a 2 h incubation at room temperature with shaking, the reaction is read on the ECL M8 Instrument (IGEN Inc.). A low voltage is applied to the ruthenylated TNF-α: immune complexes, which in the presence of TPA (the active component in Origlo), results in a cyclical redox reaction generating light at […]. The amount of secreted TNF-α in the presence of compound compared with that in the presence of DMSO vehicle alone (HI control) is calculated using the formula: % control (POC)=(cpd−average LO)/(average HI−average LO)*100. Data (consisting of POC and inhibitor concentration in AM) is fitted to a 4-parameter equation (y=A+((B−A)/(1+((x/C)^D))), where A is the minimum y (POC) value, B is the maximum y (POC), C is the x (cpd concentration) at the point of inflection and D is the slope factor) using a Levenburg-Marquardt non-linear regression algorithm.

Structure (SMILES)	IC50 [µM]
O=c1[nH]n(C2CCNCC2)c(-c2ccncc2)c1-c1ccc(Cl)cc1 [Example 5, 4-(4-Chloro-phenyl)-1-piperidin-4-yl-5-pyridin-4-yl-1,2-dihydro-pyrazol-3-one]	≤ 20
O=c1[nH]n(C2CCCNC2)c(-c2ccncc2)c1-c1ccc(Cl)cc1 (stereo not shown) [Example 6, 4-(4-Chloro-phenyl)-1-piperidin-3-yl-5-pyridin-4-yl-1,2-dihydro-pyrazol-3-one]	≤ 20
CN1CCC(n2[nH]c(=O)c(-c3ccc(Cl)cc3)c2-c2ccncc2)CC1 [Example 10, 4-(4-Chlorophenyl)-1-(1-methyl-piperidin-4-yl)-5-pyridin-4-yl-1,2-dihydro-pyrazol-3-one]	≤ 20
NC1CCC(n2[nH]c(=O)c(-c3ccc(Cl)cc3)c2-c2ccncc2)CC1 (stereo not shown) [Example 20, 1-(4-Aminocyclohexyl)-4-(4-chlorophenyl)-5-pyridin-4-yl-1,2-dihydropyrazol-3-one]	≤ 20

Results, then the compound that gave them:

IC50 [µM]	Structure (SMILES)
≤ 20	CN1CCCC(n2[nH]c(=O)c(-c3ccc(Cl)cc3)c2-c2ccncc2)C1 (stereo not shown) [Example 11, 4-(4-Chlorophenyl)-1-(1-methyl-piperidin-3-yl)-5-pyridin-4-yl-1,2-dihydro-pyrazol-3-one]
≤ 20	CC(C)N1CCC(n2[nH]c(=O)c(-c3ccc(Cl)cc3)c2-c2ccncc2)CC1 [Example 12, 4-(4-Chlorophenyl)-1-(1-isopropyl-piperidin-4-yl)-5-pyridin-4-yl-1,2-dihydro-pyrazol-3-one]
≤ 20	O=c1[nH][nH]c(-c2ccncc2)c1-c1ccc(Cl)c(Cl)c1 [Example 15, 4-(3,4-Dichloro-phenyl)-5-pyridin-4-yl-1,2-dihydro-pyrazol-3-one]
≤ 20	CC(C)n1[nH]c(=O)c(-c2ccc(Cl)c(Cl)c2)c1-c1ccncc1 [Example 16, 4-(3,4-Dichloro-phenyl)-1-isopropyl-5-pyridin-4-yl-1,2-dihydro-pyrazol-3-one]
≤ 20	CC(C)n1c(-c2ccncc2)c(-c2ccc(Cl)c(Cl)c2)c(=O)n1C [Example 17, 4-(3,4-Dichloro-phenyl)-1-isopropyl-2-methyl-5-pyridin-4-yl-1,2-dihydro-pyrazol-3-one]
≤ 20	Cn1c(=O)c(-c2ccc(Cl)c(Cl)c2)c(-c2ccncc2)n1CC1CCCCC1 [Example 19, 1-Cyclohexylmethyl-4-(3,4-dichloro-phenyl)-2-methyl-5-pyridin-4-yl-1,2-dihydro-pyrazol-3-one]
